Tested on: cotton aphids (Aphis gossypii)
Test: Test Example: cotton aphid control on cucumber plants, spray of diluted formulation
Format: in vivo
Details: formulation per Formulation Example 5 diluted with water to 500 ppm active ingredient; sprayed 20 ml/cup on cucumber plants with about 20 cotton aphids; counted on the 6th day after application
Method: Each formulation of the present compound (1), (3), (4), (6), (7), (8), (12), (13), (14), (15), (16), (17), (18), (19), (20), (21), (22), (23), (24), (25), (26), (28), (30), (31), (33), (34), (35), (36), (37), (38), (42), (43) and (44) obtained according to the Formulation Example 5 was diluted with water so that the active ingredient concentration came to 500 ppm to prepare a diluting liquid. The seeds of cucumber were planted in polyethylene cups and grown until their first foliage leaves developed, on which about 20 cotton aphids (Aphis gossypii) were made parasitic. After one day, the diluting liquid was sprayed at the rate of 20 ml/cup onto the cucumber plants. On the 6th day after the application, the number of cotton aphids was examined. As a result, the numbers of the living cotton aphids were three or less.

**Q.** `CSc1nsc(OCc2ccccc2)n1` [present compound (1), 5-benzyloxy-3-methylthio-1,2,4-thiadiazole] was tested. Which “numbers of the living cotton aphids” value did it give?
**A.** three or less

**Q.** With `CSc1nsc(OCc2cccc(Cl)c2)n1` [present compound (3), 5-(3-chlorobenzyloxy)-3-methylthio-1,2,4-thiadiazole] as the compound, how does the “numbers of the living cotton aphids” value read?
**A.** three or less

**Q.** For `CSc1nsc(OCc2ccc(Cl)cc2)n1` [present compound (4), 5-(4-chlorobenzyloxy)-3-methylthio-1,2,4-thiadiazole], which “numbers of the living cotton aphids” value is on record?
**A.** three or less

**Q.** For `CSc1nsc(OCc2cccc(C(F)(F)F)c2)n1` [present compound (6), 5-(3-trifluoromethylbenzyloxy)-3-methylthio-1,2,4-thiadiazole], which “numbers of the living cotton aphids” value is on record?
**A.** three or less

**Q.** With `CSc1nsc(OCc2ccc(C(F)(F)F)cc2)n1` [present compound (7), 5-(4-trifluoromethylbenzyloxy)-3-methylthio-1,2,4-thiadiazole] as the compound, how does the “numbers of the living cotton aphids” value read?
**A.** three or less

**Q.** For `CSc1nsc(OCc2ccc(C)cc2)n1` [present compound (8), 5-(4-methylbenzyloxy)-3-methylthio-1,2,4-thiadiazole], which “numbers of the living cotton aphids” value is on record?
**A.** three or less

**Q.** Which “numbers of the living cotton aphids” value does the source give for `CSc1nsc(OCc2ccc(F)cc2)n1` [present compound (12), 5-(4-fluorobenzyloxy)-3-methylthio-1,2,4-thiadiazole] here?
**A.** three or less

**Q.** `CSc1nsc(OCc2ccc(Br)cc2)n1` [present compound (13), 5-(4-bromobenzyloxy)-3-methylthio-1,2,4-thiadiazole] was tested. Which “numbers of the living cotton aphids” value did it give?
**A.** three or less

**Q.** `CSc1nsc(OCc2ccc(I)cc2)n1` [present compound (14), 5-(4-iodobenzyloxy)-3-methylthio-1,2,4-thiadiazole] was tested. Which “numbers of the living cotton aphids” value did it give?
**A.** three or less

**Q.** Which “numbers of the living cotton aphids” value does the source give for `CSc1nsc(OCc2ccc(OC(F)(F)F)cc2)n1` [present compound (15), 5-(4-trifluoromethoxybenzyloxy)-3-methylthio-1,2,4-thiadiazole] here?
**A.** three or less

**Q.** Which “numbers of the living cotton aphids” value does the source give for `CSc1nsc(OCc2c(F)cccc2F)n1` [present compound (16), 5-(2,6-difluorobenzyloxy)-3-methylthio-1,2,4-thiadiazole] here?
**A.** three or less

**Q.** Which “numbers of the living cotton aphids” value does the source give for `CSc1nsc(OCc2cc(F)cc(F)c2)n1` [present compound (17), 5-(3,5-difluorobenzyloxy)-3-methylthio-1,2,4-thiadiazole] here?
**A.** three or less

**Q.** Which “numbers of the living cotton aphids” value does the source give for `CSc1nsc(OCc2ccc(Cl)c(Cl)c2)n1` [present compound (18), 5-(3,4-dichlorobenzyloxy)-3-methylthio-1,2,4-thiadiazole] here?
**A.** three or less

**Q.** With `CSc1nsc(OCc2ccccn2)n1` [present compound (19), 5-(2-pyridylmethyloxy)-3-methylthio-1,2,4-thiadiazole] as the compound, how does the “numbers of the living cotton aphids” value read?
**A.** three or less

**Q.** `CSc1nsc(OCc2ccc(Cl)nc2)n1` [present compound (21), 5-(6-chloro-3-pyridyl)methyloxy-3-methylthio-1,2,4-thiadiazole] was tested. Which “numbers of the living cotton aphids” value did it give?
**A.** three or less

**Q.** `CSc1nsc(OC(C)c2ccccc2)n1` (centres unmarked) [present compound (22), 5-(1-phenylethoxy)-3-methylthio-1,2,4-thiadiazole] was tested. Which “numbers of the living cotton aphids” value did it give?
**A.** three or less

**Q.** With `CSc1nsc(OCCc2ccccc2)n1` [present compound (23), 5-(2-phenylethoxy)-3-methylthio-1,2,4-thiadiazole] as the compound, how does the “numbers of the living cotton aphids” value read?
**A.** three or less

**Q.** How did the “numbers of the living cotton aphids” value turn out when `CSc1nsc(OCCc2ccccn2)n1` [present compound (24), 5-(2-pyridyl-2-ethyloxy)-3-methylthio-1,2,4-thiadiazole] was run?
**A.** three or less

**Q.** `CSc1nsc(OCCCc2ccccc2)n1` [present compound (25), 5-(3-phenylpropyloxy)-3-methylthio-1,2,4-thiadiazole] was tested. Which “numbers of the living cotton aphids” value did it give?
**A.** three or less

**Q.** With `CSc1nsc(OCc2cccc([N+](=O)[O-])c2)n1` [present compound (26), 5-(3-nitrobenzyloxy)-3-methylthio-1,2,4-thiadiazole] as the compound, how does the “numbers of the living cotton aphids” value read?
**A.** three or less

**Q.** `CSc1nsc(OCc2cc(Cl)cc(Cl)c2)n1` [present compound (28), 5-(3,5-dichlorobenzyloxy)-3-methylthio-1,2,4-thiadiazole] was tested. Which “numbers of the living cotton aphids” value did it give?
**A.** three or less

**Q.** With `C=CCSc1nsc(OCc2ccccc2)n1` [present compound (30), 5-benzyloxy-3-allylthio-1,2,4-thiadiazole] as the compound, how does the “numbers of the living cotton aphids” value read?
**A.** three or less

**Q.** Which “numbers of the living cotton aphids” value does the source give for `c1ccc(COc2nc(SCc3ccccc3)ns2)cc1` [present compound (31), 5-benzyloxy-3-benzylthio-1,2,4-thiadiazole] here?
**A.** three or less

**Q.** How did the “numbers of the living cotton aphids” value turn out when `COc1ccc(CSc2nsc(OCc3ccccc3)n2)cc1` [present compound (33), 5-benzyloxy-3-(4-methoxybenzyl)thio-1,2,4-thiadiazole] was run?
**A.** three or less

**Q.** With `CSc1nsc(OCc2ccncc2)n1` [present compound (34), 5-(4-pyridylmethyloxy)-3-methylthio-1,2,4-thiadiazole] as the compound, how does the “numbers of the living cotton aphids” value read?
**A.** three or less

**Q.** With `CSc1nsc(OCc2cccc(Cl)n2)n1` [present compound (35), 5-(6-chloro-2-pyridylmethyloxy)-3-methylthio-1,2,4-thiadiazole] as the compound, how does the “numbers of the living cotton aphids” value read?
**A.** three or less

**Q.** How did the “numbers of the living cotton aphids” value turn out when `CSc1nsc(OCc2ncccn2)n1` [present compound (36), 5-(2-pyrimidylmethyloxy)-3-methylthio-1,2,4-thiadiazole] was run?
**A.** three or less

**Q.** How did the “numbers of the living cotton aphids” value turn out when `CSc1nsc(OCc2cncnc2)n1` [present compound (37), 5-(5-pyrimidylmethyloxy)-3-methylthio-1,2,4-thiadiazole] was run?
**A.** three or less

**Q.** How did the “numbers of the living cotton aphids” value turn out when `c1ccc(CSc2nsc(OCc3cncnc3)n2)cc1` [present compound (38), 5-(5-pyrimidylmethyloxy)-3-benzylthio-1,2,4-thiadiazole] was run?
**A.** three or less

**Q.** With `CCOCSc1nsc(OCc2ccccc2)n1` [present compound (42), 5-benzylloxy-3-ethoxymethylthio-1,2,4-thiadiazole] as the compound, how does the “numbers of the living cotton aphids” value read?
**A.** three or less

**Q.** For `c1ccc(COCSc2nsc(OCc3ccccc3)n2)cc1` [present compound (43), 5-bezyloxy-3-benzyloxymethylhio-1,2,4-thiadiazole], which “numbers of the living cotton aphids” value is on record?
**A.** three or less

**Q.** With `CC(=O)OCSc1nsc(OCc2ccccc2)n1` [present compound (44), 5-bezyloxy-3-acetoxymethylhio-1,2,4-thiadiazole] as the compound, how does the “numbers of the living cotton aphids” value read?
**A.** three or less

Reference: patent US20070293510A1, “Thiadiazole compounds and use thereof” (Sumitomo Chemical company, Limited ( a Japanese corporation), priority 2002, published 2007)
